According to US5061794A, “Cephalosporin derivatives, and antibacterial agents” (priority 1986, dated 1991):
In brackets after ≈: the same amount, converted by molar mass. Read-outs that look alike come from different tables or passages of the source.

What was measured:
E. coli CSH(RE45) = assay: microbe, parasite or virus in culture; assay type: cell-based; settings: Escherichia coli, 16 h, read-out: Minimum Inhibitory Concentration (MIC), *E. coli CSH(RE45), lactamase-producing strain; 10^6 CFU/ml
In short: (§1)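 MIC values (μg/ml) come from Mueller Hinton agar dilution plates inoculated with overnight-grown bacteria at 10^6 CFU/ml and kept at 37° C. for 16 hours.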

E. coli CSH2 (RK1) = assay: microbe, parasite or virus in culture; assay type: cell-based; settings: Escherichia coli, 16 h, read-out: Minimum Inhibitory Concentration (MIC), *E. coli CSH2 (RK1), lactamase-producing strain; 10^6 CFU/ml
In short: as §1

E. cloacae 963 = assay: in vitro antibacterial activity, agar plate dilution method (MIC); assay type: cell-based; settings: 10^6 CFU/ml
In short: as §1

E. cloacae Nek 39 = assay: as above; assay type: cell-based; settings: Enterobacter cloacae, NEK39, 16 h, read-out: Minimum Inhibitory Concentration (MIC), *E. cloacae Nek 39, lactamase-producing strain; 10^6 CFU/ml
In short: as §1

E. coli GN5482 = assay: as above; assay type: cell-based; settings: Escherichia coli, GN5482, 16 h
In short: as §1

E. coli NIHJ JC2 = assay: as above; assay type: cell-based; settings: Escherichia coli, NIHJJC2, 16 h, read-out: Minimum Inhibitory Concentration (MIC), E. coli NIHJ JC2, 10^6 CFU/ml, 37° C.
In short: as §1

K. oxytoca GN10650 = assay: as above; assay type: cell-based; settings: Klebsiella oxytoca, 10^6 CFU/ml
In short: as §1

K. pneumoniae No. 42 = assay: as above; assay type: cell-based; settings: Klebsiella pneumoniae, 10^6 CFU/ml
In short: as §1

K. pneumoniae PCI-602 = assay: as above; assay type: cell-based; settings: Klebsiella pneumoniae, PCI602, 16 h, read-out: Minimum Inhibitory Concentration (MIC), K. pneumoniae PCI-602; 10^6 CFU/ml
In short: as §1

M. morganii GN5407 = assay: as above; assay type: cell-based; settings: Morganella morganii, GN5407, 16 h, read-out: Minimum Inhibitory Concentration (MIC), *M. morganii GN5407, lactamase-producing strain; 10^6 CFU/ml
In short: as §1

P. vulgaris HX-19 = assay: as above; assay type: cell-based; settings: Proteus vulgaris, HX19, 16 h, P. vulgaris HX-19; 10^6 CFU/ml; read-out: Minimum Inhibitory Concentration (MIC)
In short: as §1

P. vulgaris No. 33 = assay: as above; assay type: cell-based; settings: Proteus vulgaris, NO.33, 16 h, read-out: Minimum Inhibitory Concentration (MIC), *P. vulgaris No. 33, lactamase-producing strain; 10^6 CFU/ml
In short: as §1

S. aureus 209P NIHJ-JC1 = assay: as above; assay type: cell-based; settings: Staphylococcus aureus, 16 h
In short: as §1

S. marcescens IAM 1184 = assay: as above; assay type: cell-based; settings: Serratia marcescens, IAM1184, 16 h, S. marcescens IAM 1184; 10^6 CFU/ml; read-out: Minimum Inhibitory Concentration (MIC)
In short: as §1

S. marcescens No. 16-2 = assay: as above; assay type: cell-based; settings: Serratia marcescens, NO.162, 16 h
In short: as §1

Ps. aeruginosa AK 109 = assay: as above; assay type: cell-based, Pseudomonas aeruginosa; settings: Pseudomonas aeruginosa, AK109, 16 h
In short: as §1

Ps. aeruginosa AKR17 = assay: as above; assay type: cell-based, Pseudomonas aeruginosa; settings: Pseudomonas aeruginosa
In short: as §1

Ps. aeruginosa IF03445 = assay: as above; assay type: cell-based, Pseudomonas aeruginosa; settings: Pseudomonas aeruginosa, IF03445, 16 h, read-out: Minimum Inhibitory Concentration (MIC), Ps. aeruginosa IF03445; 10^6 CFU/ml
In short: as §1

Ps. cepacia 23 = assay: as above; assay type: cell-based, Pseudomonas cepacia; settings: Burkholderia cepacia, 16 h; Ps. cepacia 23; 10^6 CFU/ml; read-out: Minimum Inhibitory Concentration (MIC)
In short: as §1

A. calcoaceticus No. 4 = assay: as above; assay type: cell-based, Acinetobacter calcoaceticus; settings: Acinetobacter calcoaceticus, NO.4, 16 h, 10^6 CFU/ml
In short: as §1

[1] = Enterobacter cloacae, 963, 16 h, read-out: Minimum Inhibitory Concentration (MIC), E. cloacae 963
[2] = read-out: Minimum Inhibitory Concentration (MIC)
[3] = GN10650, 16 h, read-out: Minimum Inhibitory Concentration (MIC), *K. oxytoca GN10650, lactamase-producing strain
[4] = NO.42, 16 h, read-out: Minimum Inhibitory Concentration (MIC), *K. pneumoniae No. 42, lactamase-producing strain
[5] = read-out: Minimum Inhibitory Concentration (MIC), *S. marcescens No. 16-2, lactamase-producing strain, 10^6 CFU/ml
[6] = Ps. aeruginosa AK 109, 10^6 CFU/ml, read-out: Minimum Inhibitory Concentration (MIC)
[7] = AKR17, 16 h, read-out: Minimum Inhibitory Concentration (MIC)
[8] = A. calcoaceticus No. 4, read-out: Minimum Inhibitory Concentration (MIC)
[9] = 16 h, Ps. aeruginosa AKR17, 10^6 CFU/ml, read-out: Minimum Inhibitory Concentration (MIC)
[10] = read-out: Minimum Inhibitory Concentration (MIC), S. aureus 209P NIHJ-JC1, 10^6 CFU/ml, 37° C., 16 hours
[11] = read-out: Minimum Inhibitory Concentration (MIC), A. calcoaceticus No. 4
[12] = read-out: Minimum Inhibitory Concentration (MIC), *E. coli GN5482, lactamase-producing strain, 10^6 CFU/ml

| Structure (SMILES) | MIC (E. coli CSH(RE45)) [µg/mL] | MIC (E. coli CSH2 (RK1)) [µg/mL] | MIC (E. cloacae 963; [1]) [µg/mL] | MIC (E. cloacae Nek 39) [µg/mL] | MIC (E. coli GN5482; [2]) [µg/mL] | MIC (E. coli NIHJ JC2) [µg/mL] | MIC (K. oxytoca GN10650; [3]) [µg/mL] | MIC (K. pneumoniae No. 42; [4]) [µg/mL] | MIC (K. pneumoniae PCI-602) [µg/mL] | MIC (M. morganii GN5407) [µg/mL] | MIC (P. vulgaris HX-19) [µg/mL] | MIC (P. vulgaris No. 33) [µg/mL] | MIC (S. aureus 209P NIHJ-JC1; [2]) [µg/mL] | MIC (S. marcescens IAM 1184) [µg/mL] | MIC (S. marcescens No. 16-2; [5]) [µg/mL] | MIC (Ps. aeruginosa AK 109; [6]) [µg/mL] | MIC (Ps. aeruginosa IF03445) [µg/mL] | MIC (Ps. cepacia 23) [µg/mL] | MIC (A. calcoaceticus No. 4; [8]) [µg/mL] | MIC (Ps. aeruginosa AKR17; [9]) [µg/mL] | further results |
| --- | --- | --- | --- | --- | --- | --- | --- | --- | --- | --- | --- | --- | --- | --- | --- | --- | --- | --- | --- | --- | --- |
| Nc1nc(/C(=N/OC2(C(=O)O)CC2)C(=O)N[C@@H]2C(=O)N3C(C(=O)O)=C(CSc4nnc(-c5ccc(O)c(O)c5)o4)CS[C@H]23)cs1 [Ex. 12, disodium 7β-[2-(2-aminothiazol-4-yl)-2-(1-carboxylate-1-cyclopropoxyimino)acetamido]-3-[5-(3,4-dihydroxvphenyl)-1,3,4-oxadiazol-2-vl]thiomethyl-3-cephem-4-carboxylate] | < 0.006 | < 0.006 | 0.05 | 0.025 | 0.2 | 0.05 | 0.025 | 0.025 | < 0.006 | 0.025 | < 0.006 | 0.025 | 12.5 | 0.0125 | 1.56 | 0.2 | 0.39 | < 0.006 | 0.05 |  | MIC (Ps. aeruginosa AKR17; [7]): 3.12 µg/mL |
| Nc1nc(/C(=N/OCc2ccccc2)C(=O)N[C@@H]2C(=O)N3C(C(=O)O)=C(CSc4nnc(-c5ccc(O)c(O)c5)o4)CS[C@H]23)cs1 [Ex. 13, sodium 7β-[2-(2-aminothiazol-4-yl)-2-benzyloxyiminoacetamido]-3-[5-(3,4-dihydroxyphenvl)-1,3,4-oxadiazol-2-yl]thiomethyl-3-cephem-4-carboxylate] | 1.56 | < 0.006 |  | 0.1 | 0.39 | 0.1 | 0.39 | 0.05 | < 0.006 | 0.025 | < 0.006 | 0.025 | 0.39 | 0.0125 |  |  | 0.39 | 0.025 | 0.2 | 50 | MIC (E. cloacae 963; Enterobacter cloacae, 16 h, E. cloacae 963, read-out: Minimum Inhibitory Concentration (MIC)): 0.0125 µg/mL; MIC (S. marcescens No. 16-2; [2]): 3.12 µg/mL; MIC (Ps. aeruginosa AK 109; [2]): 0.39 µg/mL |
| Nc1nc(/C(=N/OCc2ccc(O)c(O)c2)C(=O)N[C@@H]2C(=O)N3C(C(=O)O)=C(CSc4nnc(-c5ccc(O)c(O)c5)o4)CS[C@H]23)cs1 [Ex. 14, sodium 7β-[2-(2-aminothiazol-4-yl)-2-(3,4-dihydroxybenzyloxyimino)acetamido]-3-[5-(3,4-dihydroxyphenyl)-1,3,4-oxadiazol-2-yl]thiomethyl-3-cephem-4-carboxylate] | 3.12 | 0.05 | 0.39 | 1.56 | 3.12 | 0.39 | 6.25 | 0.39 | < 0.006 | 0.1 | 0.05 | 0.2 |  | 0.1 |  | 100 | 12.5 | 0.1 |  | > 100 | MIC (S. aureus 209P NIHJ-JC1; [10]): 1.56 µg/mL; MIC (S. marcescens No. 16-2; *S. marcescens No. 16-2, lactamase-producing strain, 10^6 CFU/ml, read-out: Minimum Inhibitory Concentration (MIC)): 25 µg/mL; MIC (A. calcoaceticus No. 4; [11]): 0.39 µg/mL |
| Nc1nc(/C(=N/OC(C(=O)O)c2ccccc2)C(=O)N[C@@H]2C(=O)N3C(C(=O)O)=C(CSc4nnc(-c5ccc(O)c(O)c5)o4)CS[C@H]23)cs1 (stereo partly drawn) [Ex. 15, disodium 7δ-[2-(2-aminothiazol-4-yl)-2-(α-carboxylatebenzyloxyimino)acetamido]-3-[5-(3,4-dihydroxyphenyl)-1,3,4-oxadiazol-2-yl]thiomethyl-3-cephem-4-carboxylate] | 3.12 | < 0.006 | 0.025 | 0.05 |  | 0.1 | 0.0125 | 0.05 | < 0.006 | 0.05 | < 0.006 | 0.0125 | 12.5 | 0.025 | 0.78 |  | 0.78 | < 0.006 | 0.05 |  | MIC (E. coli GN5482; [12]): 1.56 µg/mL; MIC (Ps. aeruginosa AK 109; [2]): 0.39 µg/mL; MIC (Ps. aeruginosa AKR17; AKR17, 16 h, read-out: Minimum Inhibitory Concentration (MIC), Ps. aeruginosa AKR17, 10^6 CFU/ml): 0.78 µg/mL |
| Nc1nc(/C(=N/Oc2ccccc2)C(=O)N[C@@H]2C(=O)N3C(C(=O)O)=C(CSc4nnc(-c5ccc(O)c(O)c5)o4)CS[C@H]23)cs1 [Ex. 22, sodium 7β-[2-(2-aminothiazol-4-yl)2phenoxyiminoacetamido]-3-[5-(3,4-dihydroxyphenyl)-1,3,4-oxadiazol-2-yl]thiomethyl-3-cephem-4-carboxylate] | < 0.006 | 0.0125 | 0.025 | 0.05 |  | 0.39 |  | 0.0125 | < 0.006 | 0.0125 | < 0.006 | 0.025 |  | 0.05 | 0.78 |  | 1.56 | 0.025 | 0.2 | > 100 | MIC (E. coli GN5482; [12]): 0.78 µg/mL; MIC (K. oxytoca GN10650; 16 h, *K. oxytoca GN10650, lactamase-producing strain, read-out: Minimum Inhibitory Concentration (MIC)): 100 µg/mL; MIC (S. aureus 209P NIHJ-JC1; [10]): 0.78 µg/mL; MIC (Ps. aeruginosa AK 109; read-out: Minimum Inhibitory Concentration (MIC), Ps. aeruginosa AK 109, 10^6 CFU/ml): 1.56 µg/mL |
| Nc1nc(/C(=N/OCc2ccccc2CC(=O)O)C(=O)N[C@@H]2C(=O)N3C(C(=O)O)=C(CSc4nnc(-c5ccc(O)c(O)c5)o4)CS[C@H]23)cs1 [Ex. 23] | < 0.006 | < 0.006 | 0.025 (≈ 0.0338 µM) | 0.1 (≈ 0.135 µM) |  | 0.2 (≈ 0.27 µM) | 0.1 (≈ 0.135 µM) |  | < 0.006 | 0.025 (≈ 0.0338 µM) | < 0.006 | 0.0125 (≈ 0.0169 µM) |  | 0.025 (≈ 0.0338 µM) | 1.56 (≈ 2.11 µM) | 0.1 (≈ 0.135 µM) | 0.39 (≈ 0.527 µM) | < 0.006 |  |  | MIC (E. coli GN5482; [12]): 0.78 µg/mL (≈ 1.05 µM); MIC (K. pneumoniae No. 42; 16 h, *K. pneumoniae No. 42, lactamase-producing strain, read-out: Minimum Inhibitory Concentration (MIC)): < 0.006 µg/mL; MIC (S. aureus 209P NIHJ-JC1; [10]): 6.25 µg/mL (≈ 8.45 µM); MIC (Ps. aeruginosa AKR17; [7]): 12.5 µg/mL (≈ 16.9 µM); MIC (A. calcoaceticus No. 4; [11]): 0.1 µg/mL (≈ 0.135 µM) |
